Measured values as given in US20090170886A1 (Pfizer Inc, priority 2005, published 2009).
Where a chain is given by its changes, count along the chain named. Where two headings read alike, the source gives them in different places.

Columns and labels:
[1] = target: T1, androgen receptor in MDA-MB453-MMTV clone 54-19 cells (Homo sapiens, UniProt P10275); experiment: AR Antagonist Cell Assay (MMTV-luciferase reporter, DHT-induced); format: cell-based; conditions: MDA-MB453-MMTV clone 54-19, 100 pM DHT, 17 hr; mean of multiple tests
T1 sequence (P10275 1-920 Q868H): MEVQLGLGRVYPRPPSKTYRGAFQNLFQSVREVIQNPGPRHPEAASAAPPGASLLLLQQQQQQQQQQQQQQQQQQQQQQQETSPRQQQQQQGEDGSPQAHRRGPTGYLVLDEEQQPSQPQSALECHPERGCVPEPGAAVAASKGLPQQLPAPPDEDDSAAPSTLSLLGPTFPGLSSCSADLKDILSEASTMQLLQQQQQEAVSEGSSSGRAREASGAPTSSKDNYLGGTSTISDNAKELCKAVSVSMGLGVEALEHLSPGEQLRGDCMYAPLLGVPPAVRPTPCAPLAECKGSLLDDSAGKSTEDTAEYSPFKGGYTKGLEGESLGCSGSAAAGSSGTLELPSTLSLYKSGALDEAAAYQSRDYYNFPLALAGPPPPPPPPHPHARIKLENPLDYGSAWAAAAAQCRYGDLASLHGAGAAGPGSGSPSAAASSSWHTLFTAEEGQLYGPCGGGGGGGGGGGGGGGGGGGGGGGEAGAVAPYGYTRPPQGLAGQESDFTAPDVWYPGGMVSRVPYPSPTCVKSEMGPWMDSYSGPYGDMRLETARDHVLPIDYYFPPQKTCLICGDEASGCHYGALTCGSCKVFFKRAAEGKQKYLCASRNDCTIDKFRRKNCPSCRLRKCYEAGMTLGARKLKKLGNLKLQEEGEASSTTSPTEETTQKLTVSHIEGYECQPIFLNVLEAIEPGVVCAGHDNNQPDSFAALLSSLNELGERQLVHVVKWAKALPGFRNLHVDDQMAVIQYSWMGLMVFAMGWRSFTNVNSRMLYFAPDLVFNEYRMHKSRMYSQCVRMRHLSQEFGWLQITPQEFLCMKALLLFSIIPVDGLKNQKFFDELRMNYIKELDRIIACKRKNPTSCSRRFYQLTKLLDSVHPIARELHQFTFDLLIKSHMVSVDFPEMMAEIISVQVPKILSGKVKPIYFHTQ
Description: The compounds ability to antagonize the effects of androgen on the androgen receptor were determined in a whole cell assay as described immediately below.
Cell line: MDA-MB453-MMTV clone 54-19. This cell line is a stable transfected cell line with MDA-MB453 cell background (a human breast tumor cell line expressing androgen receptor). A MMTV minimal promoter containing ARE was first cloned in front of a firefly luciferase reporter gene. Then the cascade was cloned into transfection vector pUV120puro. Electroporation method was used for transfecting MDA-MB-453 cell. Puromycin resistant stable cell line was selected.
Culture medium: DMEM (high glucose, Gibco cat #: 11960-044), 10% FBS, and 1% L-glutamine
Plating medium: DMEM (phenol red free), 10% charcoal treated HyClone serum, 1% L-glutamine
Assay medium: DMEM (phenol red free), 1% charcoal treated HyClone serum, 1% L-glutamine, and 1% penicillin/streptomycin
3× luciferase buffer: 2% beta-mercaptoethanol, 0.6% ATP, 0.0135% luciferine in cell lysis buffer
Cells are maintained in culture medium, splitting cells when they reach 80-90% confluence. To test compounds, 10,000 cells/well are plated to opaque 96 cell culture plate in 100 ul/well plating medium, culture for overnight at 37° C. in cell culture incubator. Carefully remove plating medium, then add 80 ul/well of pre-warmed assay medium, add 10 ul/well testing compound (final concentration at) 1000 nM, 200 nM, 40 nM, 8 nM, 1.6 nM, and 0.32 nM), incubate at 37° C. for 30 minutes. Add 10 ul/well freshly prepared DHT (final concentration at 100 pM) to each well, incubate at 37° C. for 17 hr (overnight). Add 50 ul/well 3× luciferase buffer, incubate at room temperature for 5 minutes, then count on Luminometer. The fold induction over background by 100 pM DHT in the absence of testing compounds is standardized as 100% and experimental result is expressed as percentage of inhibition by testing compounds.
The results are reported as the mean of multiple tests as described below (the numbers of tests are indicated in the footnote). ND denotes that the compound was not tested.

[2] = target: T2, hAR (human androgen receptor, baculovirus/Sf9 generated extracts) (Homo sapiens, UniProt P10275); experiment: AR Binding Assay (competitive binding with 3H-DHT tracer); conditions: 1 nM 3H-DHT, one hour at 4° C., mean of multiple tests
T2 construct: made in house; host or cells: baculovirus/Sf9 insect cells (crude extract)
T2 sequence (P10275 1-920): T1 sequence (P10275 1-920 Q868H) with H868Q
Description: The compounds of Formula I have affinity for the androgen receptor. […] The description below describes how the assay was carried out.
Competitive binding analysis was performed on baculovirus/Sf9 generated hAR extracts in the presence or absence of different concentrations of test agent and a fixed concentration of ^3H-dihydrotestosterone (^3H-DHT) as tracer. This binding assay method is a modification of a protocol previously described (Liao S., et. al., J. Steroid Biochem., 20:11-17, 1984). Briefly, progressively decreasing concentrations of compounds are incubated in the presence of hAR extract (Chang et al., P.N.A.S., Vol. 89, pp. 5546-5950, 1992), hydroxylapatite, and 1 nM ^3H-DHT for one hour at 4° C. Subsequently, the binding reactions are washed three times to completely remove excess unbound ^3H-DHT. hAR bound ^3H-DHT levels are determined in the presence of compounds (i.e. competitive binding) and compared to levels bound when no competitor is present (i.e. maximum binding). Compound binding affinity to the hAR is expressed as the concentration of compound at which one half of the maximum binding is inhibited. Table II below provides the results that were obtained for selected compounds (reported data is the mean of multiple tests as shown below).

[3] = hAR extract, read-out: AR Binding IC50

| Structure (SMILES) | IC50 [1] [nM] | IC50 ([2]; AR Binding IC50, hAR extract) [nM] | IC50 [2, 3] [nM] |
| --- | --- | --- | --- |
| C#CC(Oc1ccc(C#N)c(C(F)(F)F)c1)c1ccccc1 (centres unmarked) [Example 56, 4-(1-Phenyl-prop-2-ynyloxy)-2-trifluoromethyl-benzonitrile] | 20 | 74 |  |
| CC(Oc1ccc(C#N)c(C(F)(F)F)c1)c1cccnc1 (single isomer, unassigned) [Example 34, 4-(1-Pyridin-3-yl-ethoxy)-2-trifluoromethyl-benzonitrile] | 94 | 141 |  |
| CC(Oc1ccc(C#N)c(C(F)(F)F)c1)c1cccc(O)c1 (racemic) [Example 8, 4-[1-(3-Hydroxyphenyl)ethoxy]-2-(trifluoromethyl)benzonitrile] | 529 | 21 |  |
| COc1ccccc1C(C)Oc1ccc(C#N)c(C(F)(F)F)c1 (centres unmarked) [Example 5, 4-[1-(2-Methoxy-phenyl)-ethoxy]-2-t-trifluoromethyl-benzonitrile] | > 1000 |  | 312 |
| CC(C)CC(Oc1ccc(C#N)c(C(F)(F)F)c1)c1ccccn1 (centres unmarked) [Example 83, 4-(3-Methyl-1-pyridin-2-yl-butoxy)-2-trifluoromethyl-benzonitrile] | > 1000 |  | 119 |
| CC(C)(Oc1ccc(C#N)c(Cl)c1)c1ccccc1 [Example 70, 2-Chloro-4-(1-methyl-1-phenyl-ethoxy)-benzonitrile] | > 1000 | 53 |  |
| CCCC(Oc1ccc(C#N)c(C(F)(F)F)c1)c1cncc(OCOCCOC)c1 (centres unmarked) [Example 92] | > 934 | 74 |  |
| COCCOCOc1cncc(C(CC(C)C)Oc2ccc(C#N)c(C(F)(F)F)c2)c1 (centres unmarked) [Example 93, 4-{1-[5-(2-Methoxy-ethoxymethoxy)-pyridin-3-yl]-3-methyl-butoxy}-2-trifluoromethyl-benzonitrile] | 202 | 98 |  |
| Cc1cccc(C(C)Oc2ccc(C#N)c(Cl)c2)c1 (centres unmarked) [Example 60, 2-Chloro-4-(1-m-tolyl-ethoxy)-benzonitrile] | > 1000 | 74 |  |
| CC(Oc1ccc(C#N)c(Cl)c1)c1ccccc1 (centres unmarked) [Example 71, 2-Chloro-4-(1-phenyl-ethoxy)-benzonitrile] | 8 | 13 |  |
| N#Cc1ccc(OC(Cc2ccccc2)c2ccccn2)cc1C(F)(F)F (centres unmarked) [Example 82, 4-(2-Phenyl-1-pyridin-2-yl-ethoxy)-2-trifluoromethyl-benzonitrile] | > 1000 |  | 238 |
| COc1cccc(CCOc2ccc(C#N)c(C(F)(F)F)c2)c1 [Example 77, 4-[2-(3-Methoxy-phenyl)-ethoxy]-2-trifluoromethyl-benzonitrile] | 11 | 109 |  |
| CCC(C)(Oc1ccc(C#N)c(Cl)c1)c1ccccc1 (centres unmarked) [Example 58, 2-Chloro-4-(1-methyl-1-phenyl-propoxy)-benzonitrile] | > 1000 |  | 162 |
| CC(C)CC(Oc1ccc(C#N)c(C(F)(F)F)c1)c1cccc(O)c1 (racemic) [Example 20, 4-[1-(3-Hydroxyphenyl)-3-methylbutoxy]-2-(trifluoromethyl)benzonitrile] | 40 | 183 |  |
| CC(Oc1ccc(C#N)c(C(F)(F)F)c1)c1ccc(F)cc1 (centres unmarked) [Example 25, 4-[1-(4-Fluoro-phenyl)-ethoxy]-2-trifluoromethyl-benzonitrile] | 92 | 137 |  |
| N#Cc1ccc(CCOc2ccc(C#N)c(C(F)(F)F)c2)cc1 [Example 75, 4-[2-(4-Cyano-phenyl)-ethoxy]-2-trifluoromethyl-benzonitrile] | 55 | 343 |  |
| CCCC(Oc1ccc(C#N)c(C(F)(F)F)c1)c1cncc(O)c1 (centres unmarked) [Example 95, 4-[1-(5-Hydroxy-pyridin-3-yl)-butoxy]-2-trifluoromethyl-benzonitrile] | 37 | 68 |  |
| CCCC(Oc1ccc(C#N)c(C(F)(F)F)c1)c1ccccn1 (centres unmarked) [Example 81, 4-(1-Pyridin-2-yl-butoxy)-2-trifluoromethyl-benzonitrile] | 280 | 54.3 |  |
| C=CCC(Oc1ccc(C#N)c(C(F)(F)F)c1)c1cccc(O)c1 (racemic) [Example 17, 4-{[1-(3-Hydroxyphenyl)but-3-enyl]oxy}-2-(trifluoromethyl)benzonitrile] | 105 | 14 |  |
| CCOc1ccccc1COc1ccc(C#N)c(Cl)c1 [Example 68, 2-Chloro-4-(2-ethoxy-benzyloxy)-benzonitrile] | > 1000 |  | 213 |
| COc1cccc(C(C)Oc2ccc(C#N)c(C(F)(F)F)c2)c1 (centres unmarked) [Example 4, 4-[1-(3-Methoxy-phenyl)-ethoxy]-2-t-trifluoromethyl-benzonitrile] | > 1000 |  | 78 |
| COc1cncc(C(C)Oc2ccc(C#N)c(C(F)(F)F)c2)c1 (centres unmarked) [Example 72, 4-[1-(5-Methoxypyridin-3-yl)ethoxy]-2-(trifluoromethyl)benzonitrile] | 441 |  | 203 |
